Results taken from patent publication US9517227B2, “Dihydropyrazoles” (Merck Patent GmbH, priority 2011, dated 2016).

Columns and labels:
[1] = biological target: T1, FSHR (Homo sapiens, UniProt P23945); assay: EC50 of cyclic AMP production in CHO FSHR cells + EC20 FSH (Assay A); assay type: cell-based; details: CHO-FSHR-LUC cells, 0.265 pM FSH (EC20), cAMP HTRF, 1 h
T1 construct: expressed in transfected cells; host or cells: CHO (Cho-FSHR-LUC-1-1-43)
T1 sequence (P23945 18-695): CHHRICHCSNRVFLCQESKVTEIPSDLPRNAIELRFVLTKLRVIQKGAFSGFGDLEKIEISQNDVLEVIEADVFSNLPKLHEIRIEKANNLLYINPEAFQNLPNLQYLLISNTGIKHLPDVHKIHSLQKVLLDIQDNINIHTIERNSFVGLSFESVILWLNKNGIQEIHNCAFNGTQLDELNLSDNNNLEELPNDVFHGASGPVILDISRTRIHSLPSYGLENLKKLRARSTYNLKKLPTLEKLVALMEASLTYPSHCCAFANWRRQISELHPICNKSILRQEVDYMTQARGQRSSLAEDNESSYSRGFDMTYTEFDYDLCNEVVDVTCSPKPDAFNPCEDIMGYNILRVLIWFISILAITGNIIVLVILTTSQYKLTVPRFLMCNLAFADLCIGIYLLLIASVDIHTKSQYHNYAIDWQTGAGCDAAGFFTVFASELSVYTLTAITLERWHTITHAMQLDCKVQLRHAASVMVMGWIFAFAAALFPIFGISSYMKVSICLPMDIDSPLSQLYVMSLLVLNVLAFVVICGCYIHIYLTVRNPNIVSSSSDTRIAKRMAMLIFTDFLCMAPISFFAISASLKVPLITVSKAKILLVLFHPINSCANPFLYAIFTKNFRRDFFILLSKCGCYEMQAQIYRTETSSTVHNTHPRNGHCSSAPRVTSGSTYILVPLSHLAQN
Description: EC50 of Cyclic AMP Production in CHO FSHR Cells+EC20 FSH (Assay A)
2500 Cho-FSHR-LUC-1-1-43 cells were plated per well in 5 μl of phenol red free DMEM/F12+1% FBS. Cells were plated in 384 well, solid white low volume plates (Greiner 784075) by Multidrop. Cells were assayed by adding 100 μl of 2×EC20 FSH/IBMX in DMEM/F12+0.1% BSA) by Multidrop to 2 μl of test compound stamped in 384 well plates (compounds are diluted 1:50). The final FSH concentration was 0.265 pM, and the final IBMX concentration was 200 μM. The compound plate map was as follows: Column 1: 2 μl of DMSO; Column 2: 2 μl of DMSO; Columns 3-12 and 13-24: 2 μl of test compound, diluted 1:4 in 100% DMSO, or 2 μl of FSH, diluted 1:4 in DMEM/F12+0.1% BSA. The starting concentration for FSH was 50 nM (final concentration was 0.5 nM). Furthermore, Column 23 contained 2 μl of EC100 FSH reference (100×) (diluted in DMEM/F12+0.1% BSA) at a final concentration of 0.5 nM, and Column 24 contained 2 μl of 1 mM AS707664/2 reference compound 2. 5 μl of compound+EC20 FSH mixture were transferred to cell plates (1:2 dilution into 5 μl of cell media). The plates were incubated at 37° C. for 1 h. 10 μl of mixed HTRF (CisBio #62AM4PEC) reagents were added per well and incubated at room temperature for 1 h. The plates were read on Envision using the cAMP HTRF—low volume 384 well protocol. The readout was the calculated fluorescence ratio (665 nm/620 nm).

[2] = biological target: T2, follicle-stimulating hormone (FSH) receptor (Rattus norvegicus, UniProt P20395); assay: Rat granulosa EC50 FSH (Assay B); assay type: cell-based; details: rat granulosa cells; for EC50: per Yanofsky et al. 2006
T2 construct: endogenous in cells; host or cells: rat granulosa cells
T2 sequence (P20395 18-692): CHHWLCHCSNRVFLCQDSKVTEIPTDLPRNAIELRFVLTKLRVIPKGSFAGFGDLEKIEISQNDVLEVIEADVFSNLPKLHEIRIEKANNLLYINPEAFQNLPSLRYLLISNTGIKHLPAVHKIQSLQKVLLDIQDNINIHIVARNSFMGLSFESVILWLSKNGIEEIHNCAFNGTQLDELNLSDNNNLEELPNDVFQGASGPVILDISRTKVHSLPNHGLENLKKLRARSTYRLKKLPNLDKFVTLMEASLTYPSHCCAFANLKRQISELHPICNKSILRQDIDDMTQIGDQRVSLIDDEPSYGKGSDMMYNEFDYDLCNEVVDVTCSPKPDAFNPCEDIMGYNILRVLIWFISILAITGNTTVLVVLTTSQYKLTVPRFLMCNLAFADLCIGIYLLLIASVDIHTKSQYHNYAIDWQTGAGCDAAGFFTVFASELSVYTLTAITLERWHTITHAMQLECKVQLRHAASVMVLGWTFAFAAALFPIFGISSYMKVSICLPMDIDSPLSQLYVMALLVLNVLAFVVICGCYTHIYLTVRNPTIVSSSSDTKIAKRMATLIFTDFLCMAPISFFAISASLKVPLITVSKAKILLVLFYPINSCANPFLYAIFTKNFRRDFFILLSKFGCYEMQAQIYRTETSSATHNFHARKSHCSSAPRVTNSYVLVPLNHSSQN
Description: Rat Granulosa EC50 FSH (Assay B)
The assay was performed pursuant to the teaching of Yanofsky et al. (2006) Allosteric activation of the follicle-stimulating hormone (FSH) receptor by selective, nonpeptide agonists. JBC 281(19): 13226-13233, which is incorporated by reference in the disclosure of the invention.

Row | SMILES | EC50 [1] [µM] | EC50 [2] [µM] | Assay B: value given in % (rat granulosa) ([2]; meaning of % not stated) [%]
1 | COc1ccc(C2=NN(C(=O)Cc3cccc(F)c3)C(C)(C)C2)cc1OC [Compound 255, 1-[3-(3,4-Dimethoxy-phenyl)-5,5-dimethyl-4,5-dihydro-pyrazol-1-yl]-2-(3-fluoro-phenyl)-ethanone] | 35 |  | 
2 | COc1ccc(C2=NN(C(=O)c3cccc(F)c3)CC2(C)C)cc1OC [Compound 149, [3-(3,4-Dimethoxy-phenyl)-4,4-dimethyl-4,5-dihydro-pyrazol-1-yl]-(3-fluoro-phenyl)-methanone] | 0.382 |  | 
3 | COc1ccc(C2=NN(C(=O)Cc3cccc(F)c3)CC2)cc1OC [Compound 241, 1-[3-(3,4-Dimethoxy-phenyl)-4,5-dihydro-pyrazol-1-yl]-2-(3-fluoro-phenyl)-ethanone] | 31 | 0.342 | 
4 | COc1ccc(C2=NN(C(=O)c3ccc(C)c(F)c3)CC2)cc1OC [Compound 136] | 30 | 0.106 | 
5 | COc1ccc(C2=NN(C(=O)c3ccc4c(c3)OCO4)C(C)(C)C2)cc1OC [Compound 131, [1,3]Dioxol-5-yl-[3-(3,4-dimethoxy-phenyl)-5,5-dimethyl-4,5-dihydro-pyrazol-1-yl]-methanone] | 23 | 0.413 | 
6 | COc1ccc(C2=NN(C(=O)c3cccc(C(F)(F)F)c3)CC2)cc1OC [Compound 64] | 11 | 0.348 | 
7 | Cn1ccc2cc(C3=NN(C(=O)c4cccc(F)c4)CC3)ccc21 [Compound 185] | 4.5 |  | 
8 | CC(C)(C)Oc1ccc(C2=NN(C(=O)c3cccc(F)c3)CC2)cc1 [Compound 210] | 7.39 |  | 
9 | O=C(c1cccc(F)c1)N1CCC(c2ccc(C(F)(F)F)cc2)=N1 [Compound 207] | 44.5 |  | 
10 | COc1ccc(C2=NN(C(=O)c3cccc(OC(F)(F)F)c3)C(C)(C)C2)cc1OC [Compound 231, [3-(3,4-Dimethoxy-phenyl)-5,5-dimethyl-4,5-dihydro-pyrazol-1-yl]-(3-trifluoromethoxy-phenyl)-methanone] | 23.8 | 1.15 | 
11 | COc1ccc(C2=NN(C(=O)[C@H](OC)c3ccccc3)CC2)cc1OC [Compound 290] |  | 5.4 | 
12 | CSc1ccc(C2=NN(C(=O)c3ccc4c(c3)OCO4)CC2)cc1 [Compound 205, Benzo[1,3]dioxol-5-yl-[3-(4-methylsulfanyl-phenyl)-4,5-dihydro-pyrazol-1-yl]-methanone] | 30 |  | 
13 | COc1ccc(C2=NN(C(=O)c3cccc(F)c3)C(C)(C)C2)cc1OC [Compound 129, [3-(3,4-Dimethoxy-phenyl)-5,5-dimethyl-4,5-dihydro-pyrazol-1-yl]-(3-fluoro-phenyl)-methanone] | 35 | 0.363 | 
14 | COc1ccc(-c2ccn(C(=O)c3ccc4c(c3)OCO4)n2)cc1OC [Compound 148] | 2.88 | 3.4 | 
15 | COc1ccc(C2=NN(C(=O)c3cccc(Br)c3)CC2)cc1OC [Compound 61] | 9.75 | 0.465 | 
16 | COc1ccc(C2=NN(C(=O)c3cccc(C)c3)C(C)(C)C2)cc1OC [Compound 232, [3-(3,4-Dimethoxy-phenyl)-5,5-dimethyl-4,5-dihydro-pyrazol-1-yl]-m-tolyl-methanone] | 38.7 | 0.572 | 
17 | COc1ccc(C2=NN(C(=O)c3ccc(Br)cc3)C(C)(C)C2)cc1OC [Compound 257, (4-Bromo-phenyl)-[3-(3,4-dimethoxy-phenyl)-5,5-dimethyl-4,5-dihydro-pyrazol-1-yl]-methanone] | 33.2 |  | 

Row | SMILES | EC50 [1] [µM] | EC50 [2] [µM] | Assay B: value given in % (rat granulosa) ([2]; meaning of % not stated) [%]
18 | Cc1cccc(C2=NN(C(=O)c3cccc(F)c3)CC2)c1 [Compound 179, (3-Fluoro-phenyl)-(3-m-tolyl-4,5-dihydro-pyrazol-1-yl)-methanone] | 34 |  | 
19 | COc1ccc(C2=NN(C(=O)c3cccc(F)c3)CC2)cc1S(=O)(=O)NCc1ccccc1 [Compound 214] | 1.1 |  | 
20 | COc1ccc(C2=NN(C(=O)C(OC)c3cccc(C(F)(F)F)c3)CC2)cc1OC (stereo not shown) [Compound 277] | 2 |  | 
21 | COc1ccc(C2=NN(C(=O)c3cccc(F)c3)CC2)c(OC)c1OC [Compound 223] | 31.2 |  | 
22 | COc1ccc(C2=NN(C(=O)c3ccccc3F)C(C)(C)C2)cc1OC [Compound 228, [3-(3,4-Dimethoxy-phenyl)-5,5-dimethyl-4,5-dihydro-pyrazol-1-yl]-(2-fluoro-phenyl)-methanone] |  | 0.134 | 
23 | COc1ccc(C(OC)C(=O)N2CCC(c3ccc(OC)c(OC)c3)=N2)cc1 (stereo not shown) [Compound 275] | 24 |  | 
24 | COc1ccc(C2=NN(C(=O)c3cccc(Oc4ccccc4)c3)C(C)(C)C2)cc1OC [Compound 229, [3-(3,4-Dimethoxy-phenyl)-5,5-dimethyl-4,5-dihydro-pyrazol-1-yl]-(3-phenoxy-phenyl)-methanone] |  | 0.032 | 
25 | CSc1ccc(C2=NN(C(=O)c3cccc(F)c3)CC2)cc1 [Compound 204, (3-Fluoro-phenyl)-[3-(4-methylsulfanyl-phenyl)-4,5-dihydro-pyrazol-1-yl]methanone] | 8.25 |  | 
26 | COc1ccc(C2=NN(C(=O)c3ccc(C(F)(F)F)c(F)c3)CC2)cc1OC [Compound 75] | 5.7 |  | 
27 | COc1ccc(C2=NN(C(=O)C(OC)c3ccccc3)CC2)cc1OC (stereo not shown) [Compound 291] |  |  | 144.00
28 | COc1ccc(C2=NN(C(=O)c3cccc(Cl)c3)C(C)(C)C2)cc1OC [Compound 251, (3-Chloro-phenyl)-[3-(3,4-dimethoxy-phenyl)-5,5-dimethyl-4,5-dihydro-pyrazol-1-yl]-methanone] | 27.1 |  | 
29 | CCc1ccc(C(=O)N2N=C(c3ccc(OC)c(OC)c3)CC2(C)C)cc1 [Compound 259, [3-(3,4-Dimethoxy-phenyl)-5,5-dimethyl-4,5-dihydro-pyrazol-1-yl]-(4-ethyl-phenyl)-methanone] | 30 |  | 
30 | O=C(c1ccc2c(c1)OCO2)N1CCC(c2ccc(OC(F)(F)F)cc2)=N1 [Compound 199, Benzo[1,3]dioxol-5-yl-[3-(4-trifluoromethoxy-phenyl)-4,5-dihydro-pyrazol-1-yl]methanone] | 34.3 |  | 
31 | O=C(c1cccc(F)c1)N1CCC(c2ccc3c(c2)OCCO3)=N1 [Compound 189] | 28 |  | 
32 | COc1ccc(C2=NN(C(=O)C(OC)c3ccc(Cl)cc3)CC2)cc1OC (stereo not shown) [Compound 274] | 25 |  | 
33 | COc1ccc(C2=NN(C(=O)C(OC)c3ccc(C)cc3)CC2)cc1OC (stereo not shown) [Compound 282] | 27 |  | 
34 | COc1ccc(C2=NN(C(=O)c3ccc(Cl)cc3)C(C)(C)C2)cc1OC [Compound 247, (4-Chloro-phenyl)-[3-(3,4-dimethoxy-phenyl)-5,5-dimethyl-4,5-dihydro-pyrazol-1-yl]-methanone] | 35.2 |  | 
